The source of these data is patent US8871934B2, “Fluorene compound and pharmaceutical use thereof” (Japan Tobacco Inc., priority 2008, dated 2014).

A word on the IC50: it is the concentration needed to halve the response being measured.

Read-outs that look alike come from different tables or passages of the source.

The target in this assay is human PDHK2 (hPDHK2) (Homo sapiens (Human), UniProt Q15119). Briefly: Inhibitory action of PDHK activity in vitro (kinase reaction, residual PDH activity measured). Format: biochemical. Here is the method:
In the case of human PDHK2 (hPDHK2, Genbank Accession No. NM_002611), modified hPDHK2 cDNA wherein FLAG-Tag sequence is added to the N terminal by a polymerase linkage reaction was prepared based on hPDHK2 cDNA clone (pReceiver-M01/PDK2-GeneCopoeia), and cloned into a vector (pET17b-Novagen). The recombinant construct was transformed into Escherichia coli (DH5α-TOYOBO). The recombinant clones were identified, plasmid DNA was isolated and subjected to the DNA sequence analysis. One clone which had the expected nucleic acid sequence was selected for expression work.
During the assay, the hPDHK2 enzyme concentration was set to the minimal concentration at which PDH is inhibited the most.
0.05 U/mL PDH (porcine heart PDH complex, Sigma P7032) and 1.6 μg/mL hPDHK2 were mixed in a buffer (50 mmol/L 3-morpholinopropanesulfonic acid (pH 7.0), 20 mmol/L dipotassium hydrogen phosphate, 60 mmol/L potassium chloride, 2 mmol/L magnesium chloride, 0.4 mmol/L EDTA, and 0.2% Pluronic F-68, 2 mmol/L dithiothreitol), the mixture was incubated at 4° C. overnight to give PDH/hPDHK2 complex. The test compound was diluted with dimethyl sulfoxide (DMSO). PDH/hPDHK2 complex (20 μL), test compound (1.5 μL) and 3.53 μmol/L ATP (diluted with buffer, 8.5 μL) were added to a half area 96 well UV-transparent microplate (Corning 3679), and PDHK reaction was performed at room temperature for 45 min. Instead of the test compound, DMSO (1.5 μL) was added to a control well. DMSO (1.5 μL) was added instead of the test compound to a blank well for the measurement of the maximum rate of PDH reaction, and hPDHK2 was not added. Than, 10 μL of substrates (5 mmol/L sodium pyruvate, 5 mmol/L Coenzyme A, 12 mmol/L NAD, and 5 mmol/L thiamine pyrophosphate, diluted with buffer) was added. The mixture was incubated at room temperature for 90 min, and the residual PDH activity was measured. The absorbance at 340 nm before and after PDH reaction was measured on a microplate reader to detect NADH produced by the PDH reaction. The PDHK inhibitory rate (%) of the test compound was calculated from the formula [{(PDH activity of test compound—PDH activity of control)/PDH activity of blank—PDH activity of control)}×100]. The IC50 value was calculated from the concentrations of the test compound at two points enclosing 50% inhibition of the PDHK activity.

Setting [1] is: PDHK inhibitory activity, class symbol of IC50.
The mark [2] stands for this setting: read-out: PDHK inhibitory activity IC50.
[3] abbreviates: PDHK inhibitory activity (class symbol).

`COc1cc(-c2cnn(CCC(=O)O)c2)c2c(c1)C(O)(C(F)(F)F)c1ccccc1-2` (single isomer, unassigned) [compound 588]: the IC50 was below 100 nM under setting [1] and 29 nM under setting [2].
The matching figures for `O=C(c1cc(Cl)c2c(c1)C(O)(C(F)(F)F)c1ccccc1-2)N1CC(OCCO)C1` (centres unmarked) [compound 328]: below 100 nM and 78 nM.
The matching figures for `CC(=O)N(C)Cc1ccc2c(c1)C(O)(C(F)(F)F)c1ccccc1-2` (centres unmarked) [compound 418]: above 1000 nM and 6060 nM.
Regarding `CC(C)Cc1cc(-c2cnn(CCO)c2)c2c(c1)C(O)(C(F)(F)F)c1ccccc1-2` (centres unmarked) [compound 631], the IC50 reads like this: under setting [3], below 100 nM; under setting [2], 62 nM.
Consider `CC(C)Oc1ccc2c(c1)C(O)(C(F)(F)F)c1ccccc1-2` (centres unmarked) [compound 110], for which the IC50 reads like this: under setting [1], above 1000 nM; under setting [2], 2490 nM.
The matching figures for `Cn1cc(-c2cc(C(=O)N3CCC[C@@H]3CO)cc3c2-c2ccccc2C3(O)C(F)(F)F)cn1` (some centres unmarked) [compound 392]: 100 to 1000 nM and 200 nM.
For `OC1(C(F)(F)F)c2ccccc2-c2cccc(Cl)c21` (centres unmarked) [compound 8], in that order: above 1000 nM and 45600 nM.
For `O=C(COc1ccc2c(c1)C(O)(C(F)(F)F)c1ccccc1-2)N1CCC[C@@H]1CO` (some centres unmarked) [compound 382], in that order: 100 to 1000 nM and 863 nM.
For the molecule `OCC(CO)c1ncc(-c2cc(F)cc3c2-c2ccccc2C3(O)C(F)(F)F)o1` (single isomer, unassigned) [compound 682], the IC50 under setting [3] was below 100 nM and the IC50 under setting [2] came out at 79 nM.
Turning to `CN(CCOc1ccc2c(c1)C(O)(C(F)(F)F)c1ccccc1-2)CC(=O)O` (centres unmarked) [compound 444], the IC50 runs as follows: under setting [1], above 1000 nM; under setting [2], 3930 nM.
In the case of `CC(C)(O)Cn1cc(-c2cc(CO)c3c(c2)C(O)(C(F)(F)F)c2ccccc2-3)cn1` (centres unmarked) [compound 661], the IC50 was below 100 nM under setting [3] and 59 nM under setting [2].
`O=C(c1ccc2c(c1)C(O)(C(F)(F)F)c1ccccc1-2)N1CC(O)C1` (centres unmarked) [compound 79]: the IC50 is, setting by setting: under setting [1], 100 to 1000 nM; under setting [2], 696 nM.
For `OC1(C(F)(F)F)c2ccccc2-c2c(Br)cccc21` (centres unmarked) [compound 113], in that order: above 1000 nM and 1110 nM.
For the molecule `CC(=O)c1cc(C(=O)N2CCC2)cc2c1-c1ccccc1C2(O)C(F)(F)F` (centres unmarked) [compound 122], the IC50 reads like this: under setting [1], below 100 nM; under setting [2], 49 nM.
Turning to `CCn1cc(-c2cc(CO)c3c(c2)C(O)(C(F)(F)F)c2ccccc2-3)cn1` (centres unmarked) [compound 618], the IC50 runs as follows: under setting [3], below 100 nM; under setting [2], 56 nM.
For the molecule `CN(C)CCOc1ccc2c(c1)C(O)(C(F)(F)F)c1ccccc1-2` (centres unmarked) [compound 322], the IC50 is, setting by setting: under setting [1], above 1000 nM; under setting [2], 2500 nM.
The matching figures for `Cc1ccc(-c2ccc3c(c2)C(O)(C(F)(F)F)c2ccccc2-3)cc1` (centres unmarked) [compound 181]: above 1000 nM and 1510 nM.
For `OC12CC3CC(C1)CC(Cn1cc(-c4cccc5c4-c4ccccc4C5(O)C(F)(F)F)cn1)(C3)C2` (centres unmarked) [compound 547], in that order: below 100 nM and 62 nM.
For `O=C1CC[C@@H](COc2ccc3c(c2)C(O)(C(F)(F)F)c2ccccc2-3)N1` (some centres unmarked) [compound 446], in that order: 100 to 1000 nM and 565 nM.
For the molecule `OCc1cccc2c1-c1ccccc1C2(O)C(F)(F)F` (centres unmarked) [compound 74], the IC50 by setting is: under setting [1], above 1000 nM; under setting [2], 3320 nM.
The matching figures for `CC(=O)N(C)c1ccc2c(c1)C(O)(C(F)(F)F)c1ccccc1-2` (centres unmarked) [compound 96]: above 1000 nM and 6570 nM.
For `CN(CCO)C(=O)c1cc(-c2cnn(C)c2)c2c(c1)C(O)(C(F)(F)F)c1ccccc1-2` (centres unmarked) [compound 346], in that order: 100 to 1000 nM and 200 nM.
The matching figures for `O=C(c1cc(Cl)c2c(c1)C(O)(C(F)(F)F)c1ccccc1-2)N1CC(O)C1` (centres unmarked) [compound 339]: 100 to 1000 nM and 177 nM.
In the case of `Cc1cc(-c2cnn(C(CO)(CO)CO)c2)c2c(c1)[C@@](O)(C(F)(F)F)c1ccccc1-2` [compound 707, (+)-2-hydroxymethyl-2-[4-(9-hydroxy-2-methyl-9-trifluoromethyl-9H-fluoren-4-yl)-pyrazol-1-yl]-propane-1,3-diol], the IC50 is below 100 nM under setting [3] and 19 nM (PDHK inhibitory activity IC50 (μmol/L)).
Regarding `O=C(NCCCCO)c1ccc2c(c1)C(O)(C(F)(F)F)c1ccccc1-2` (centres unmarked) [compound 312], the IC50 is above 1000 nM under setting [1] and 1820 nM under setting [2].
The matching figures for `CC(C)NC(=O)Cn1cc(-c2cccc3c2-c2ccccc2C3(O)C(F)(F)F)cn1` (centres unmarked) [compound 514]: below 100 nM and 58 nM.
`Cc1cc(-c2cnn(CCCCC(=O)O)c2)c2c(c1)C(O)(C(F)(F)F)c1ccccc1-2` (single isomer, unassigned) [compound 606]: the IC50 runs as follows: under setting [3], below 100 nM; under setting [2], 28 nM.
In the case of `OC1(C(F)(F)F)c2ccccc2-c2c(-c3ccccn3)cccc21` (centres unmarked) [compound 134], the IC50 runs as follows: under setting [1], above 1000 nM; under setting [2], above 10000 nM.
For `CC(=O)NCCOc1cc(-c2cnn(C)c2)c2c(c1)C(O)(C(F)(F)F)c1ccccc1-2` (centres unmarked) [compound 435], the IC50 runs as follows: under setting [1], below 100 nM; under setting [2], 39 nM.
The matching figures for `COCc1cccc2c1-c1ccccc1C2(O)C(F)(F)F` (centres unmarked) [compound 82]: above 1000 nM and 67300 nM.
For `CN1CCN(c2ccc3c(c2)C(O)(C(F)(F)F)c2ccccc2-3)CC1` (centres unmarked) [compound 162], in that order: above 1000 nM and 2890 nM.
For `Cc1cccc2c1-c1ncccc1C2(O)C(F)(F)F` (centres unmarked) [compound 15], in that order: above 1000 nM and 16300 nM.
For `OCCCCCOc1ccc2c(c1)C(O)(C(F)(F)F)c1ccccc1-2` (centres unmarked) [compound 296], the IC50 is, setting by setting: under setting [1], 100 to 1000 nM; under setting [2], 180 nM.
Consider `OCCn1cc(-c2cc(OCCC34CC5CC(CC(O)(C5)C3)C4)cc3c2-c2ccccc2C3(O)C(F)(F)F)cn1` (single isomer, unassigned) [compound 542], for which the IC50 under setting [1] was below 100 nM and the IC50 under setting [2] was determined as 15 nM.
The matching figures for `NC(=O)CCn1cc(-c2cc(Cl)c3c(c2)C(O)(C(F)(F)F)c2ccccc2-3)cn1` (centres unmarked) [compound 521]: below 100 nM and 36 nM.
With `O=C(c1ccc2c(c1)C(O)(C(F)(F)F)c1ccccc1-2)N1CCC(CO)C1` (centres unmarked) [compound 225], the IC50 runs as follows: under setting [1], 100 to 1000 nM; under setting [2], 619 nM.
For `CNC(=O)Cn1cc(-c2cccc3c2-c2ccccc2C3(O)C(F)(F)F)cn1` (centres unmarked) [compound 494], in that order: below 100 nM and 44 nM.
The matching figures for `CN(C)C1CN(C(=O)c2ccc3c(c2)C(O)(C(F)(F)F)c2ccccc2-3)C1` (centres unmarked) [compound 133]: above 1000 nM and 2500 nM.
The matching figures for `CC(=O)Nc1ccc2c(c1)-c1ccccc1C2(O)C(F)(F)F` (centres unmarked) [compound 28]: above 1000 nM and 2820 nM.
In the case of `O=C(c1ccc2c(c1)C(O)(C(F)(F)F)c1ccccc1-2)N1CCCC1CO` (centres unmarked) [compound 195], the IC50 is above 1000 nM under setting [1] and 5480 nM under setting [2].
